This is an account of results in publication PMC12190468, “Designing New Chimeric Proline-Rich Antimicrobial Peptides to Enhance Efficacy Toward the ESKAPE+E: Beyond Sequence Extension” (Biomolecules, 2025).

Where two headings read alike, the source gives them in different places. Ends that are not written are not given here.

Assay [1] relates to A. baumannii ATCC 19606. The format is cell-based, Acinetobacter baumannii. The protocol:
(§1) Reference bacterial strains, including Escherichia coli BW25113, Escherichia coli ATCC 25922, Klebsiella pneumoniae ATCC 700603, Acinetobacter baumannii ATCC 19606, Enterobacter cloacae ATCC 13047, Pseudomonas aeruginosa ATCC 27853, Staphylococcus aureus ATCC 25923, and Enterococcus faecium ATCC 19434, were obtained from the American Type Culture Collection (ATCC) in Manassas, VA, USA. Strains were stored at −80 °C in glycerol stocks until use. For all experiments, cultures were grown in sterile MHB (Difco Inc., Becton Dickinson, Sparks, MD, USA). Overnight cultures were incubated at 37 °C for approximately 18 h under shacking (140 rpm, then diluted 1:30 in fresh MHB and again shaken at 140 rpm for ~2 h to reach the mid-log phase (OD ~0.3 at 600 nm). The bacterial cultures were then diluted to the desired concentration for experiments. E. coli BW25113 ΔsbmA (Keio collection) was grown in MHB with the addition of 50 μg/mL kanamycin (Sigma, Milan, Italy).
(§2) The Minimal Bactericidal Concentration (MBC) was determined by plating 25 μL from clear MIC wells onto MH-agar Petri dishes (Difco Inc., Becton Dickinson, Sparks, MD, USA), followed by overnight incubation at 37 °C. The MBC was the lowest compound concentration, reducing bacterial viability by ≥99.9%. Results were based on at least three independent experiments (n ≥ 3).

The test system of another assay is E. coli BW 25113 ΔsbmA. The format is cell-based, Escherichia coli. To be noted: full MHB, 18 h at 37 °C, mode of at least three independent experiments. The protocol:
as §1
(§3) Antimicrobial activity was assessed using the Minimum Inhibitory Concentration (MIC) assay, following CLSI guidelines. Briefly, peptides were serially diluted in MHB across a 96-well round-bottom plate (Sarstedt, Milan, Italy), starting with 50 μL in the first well. A mid-log bacterial culture was diluted to 5 × 10^5 CFU/mL, and 50 μL of this suspension was added to each well (except the MHB sterility control wells). […] MIC values were confirmed by at least three independent experiments (n ≥ 3).

The test system of assay [2] is E. coli ATCC 25922. The format is cell-based, Escherichia coli. As for the experimental part:
as §1, §3

For assay [3], the system named is E. coli BW 25113. Type of assay: cell-based, Escherichia coli. The note with it: full MHB, 18 h at 37 °C, mode of at least three independent experiments. As for the experimental part: as §1, §3
Assay [4] concerns K. pneumoniae ATCC 700603. Type of assay: cell-based, Klebsiella pneumoniae. As for the experimental part: as §1, §2
Assay [5] relates to E. cloacae ATCC 13047. The format is cell-based, Enterobacter cloacae. As for the experimental part: as §1, §2
The subject of assay [6] is P. aeruginosa ATCC 27853. The format is cell-based, Pseudomonas aeruginosa. As for the experimental part:
as §1, §2

In assay [7] the test system is E. cloacae ATCC 13047. Type of assay: cell-based, Enterobacter cloacae. The protocol: as §1, §3
The source holds these as a separate data set.

The subject of assay [8] is P. aeruginosa ATCC 27853. The format is cell-based, Pseudomonas aeruginosa. The protocol:
as §1, §3
The source holds these as a separate data set.

Assay [9] concerns E. coli ATCC 25922. Type of assay: cell-based, Escherichia coli. The protocol: as §1, §2
The source holds these as a separate data set.

In assay [10] the test system is E. coli BW 25113. The format is cell-based, Escherichia coli. The note with it: ≥99.9% reduction of viability, after 18 h at 37 °C, mode of at least three independent experiments. As for the experimental part: as §1, §2
The test system of assay [11] is S. aureus ATCC 25923. Type of assay: cell-based, Staphylococcus aureus. As for the experimental part:
as §1, §2

Assay [12] concerns E. faecium ATCC 19434. The format is cell-based, Enterococcus faecium. The protocol: as §1, §2
For assay [13], the system named is E. faecium ATCC 19434. Type of assay: cell-based, Enterococcus faecium. The protocol: as §1, §3
The source holds these as a separate data set.

Assay [14] concerns A. baumannii ATCC 19606. Type of assay: cell-based, Acinetobacter baumannii. The note with it: ATCC 19606, 18 h. The protocol:
as §1, §3

Assay [15] has as its system S. aureus ATCC 25923. The format is cell-based, Staphylococcus aureus. The note with it: ATCC 25923, 18 h. As for the experimental part:
as §1, §3

In assay [16] the test system is K. pneumoniae ATCC 700603. Type of assay: cell-based, Klebsiella pneumoniae. To be noted: ATCC 700603, 18 h. The protocol: as §1, §3

Regarding WRIRRRWPRLPRPRWR [Peptide B7-005], the MBC in the assay with A. baumannii ATCC 19606 [1] (A. baumannii ATCC 19606, ≥99.9% reduction of viability, after 18 h at 37 °C, mode of at least three independent experiments) turned out to be 4 µM; in assay [4] (K. pneumoniae ATCC 700603, ≥99.9% reduction of viability, after 18 h at 37 °C, mode of at least three independent experiments) it was 4 µM; in the assay on E. cloacae ATCC 13047 [5] (E. cloacae ATCC 13047, ≥99.9% reduction of viability, after 18 h at 37 °C, mode of at least three independent experiments) it was 16 µM; in the assay with P. aeruginosa ATCC 27853 [6] (P. aeruginosa ATCC 27853, ≥99.9% reduction of viability, after 18 h at 37 °C, mode of at least three independent experiments) it was 16 µM; in the assay on E. coli ATCC 25922 [9] (E. coli ATCC 25922, ≥99.9% reduction of viability, after 18 h at 37 °C, mode of at least three independent experiments), 2 µM; against E. coli BW 25113 [10], 2 µM. Further, the MBC against S. aureus ATCC 25923 [11] (S. aureus ATCC 25923, ≥99.9% reduction of viability, after 18 h at 37 °C, mode of at least three independent experiments) is 16 µM; against E. faecium ATCC 19434 [12] (E. faecium ATCC 19434, ≥99.9% reduction of viability, after 18 h at 37 °C, mode of at least three independent experiments) it was more than 64 µM. Besides, the MIC with E. coli BW 25113 ΔsbmA came to 2 µM; against E. coli ATCC 25922 [2] (E. coli ATCC 25922, full MHB, 18 h at 37 °C, mode of at least three independent experiments), 1 µM; in the assay with E. coli BW 25113 [3], 1 µM; in the assay on E. cloacae ATCC 13047 [7] (E. cloacae ATCC 13047, full MHB, 18 h at 37 °C, mode of at least three independent experiments) it was 8 µM; in the assay on P. aeruginosa ATCC 27853 [8] (P. aeruginosa ATCC 27853, full MHB, 18 h at 37 °C, mode of at least three independent experiments) it was 16 µM; against E. faecium ATCC 19434 [13] (E. faecium ATCC 19434, full MHB, 18 h at 37 °C, mode of at least three independent experiments), 32 µM.

WRIRRRWPRLPRPRWRPLPFPR [Peptide B7-B6]: the minimum inhibitory concentration (MIC) was 2 µM against E. coli BW 25113 ΔsbmA; 2 µM against E. coli ATCC 25922 [2] (ATCC 25922, 18 h); 1 µM in the assay on E. coli BW 25113 [3]; 1 µM against A. baumannii ATCC 19606 [14]; 8 µM in the assay on S. aureus ATCC 25923 [15]; 8 µM against P. aeruginosa ATCC 27853 [8] (ATCC 27853, 18 h). The MIC against E. faecium ATCC 19434 [13] (ATCC 19434, 18 h) came out at 8 µM. In addition, the “MIC (geometric mean)” value is 1,6 µM with E. coli ATCC 25922 [2] (ATCC 25922, 18 h); 10,1 µM in the assay with S. aureus ATCC 25923 [15]; 10,1 µM against P. aeruginosa ATCC 27853 [8] (ATCC 27853, 18 h); 10,1 µM with E. faecium ATCC 19434 [13] (ATCC 19434, 18 h). Besides, the MBC in the assay with E. cloacae ATCC 13047 [5] (ATCC 13047, 18 h) is 4 µM; in the assay on P. aeruginosa ATCC 27853 [6] (ATCC 27853, 18 h), 16 µM; with E. coli ATCC 25922 [9] (ATCC 25922, 18 h), 2 µM; against E. coli BW 25113 [10], 1 µM; in the assay on S. aureus ATCC 25923 [11] (ATCC 25923, 18 h), 16 µM; in the assay with E. faecium ATCC 19434 [12] (ATCC 19434, 18 h), more than 64 µM. The “MBC (geometric mean)” value in the assay with E. coli ATCC 25922 [9] (ATCC 25922, 18 h) is reported as 1,6 µM.

As to “WRIRRRWPRLPRPRWRPLPFPRPGPRP [Peptide B7-B11]”, the minimal bactericidal concentration (MBC) in the assay on A. baumannii ATCC 19606 [1] (ATCC 19606, 18 h) worked out at 2 µM; in assay [4] (ATCC 700603, 18 h) it was 8 µM; in the assay on E. cloacae ATCC 13047 [5] (ATCC 13047, 18 h), 4 µM; in the assay on P. aeruginosa ATCC 27853 [6] (ATCC 27853, 18 h) it was 16 µM; against E. coli BW 25113 [10], 1 µM; in the assay with S. aureus ATCC 25923 [11] (ATCC 25923, 18 h) it was 32 µM. The sequence also registered an MBC in the assay with E. faecium ATCC 19434 [12] (ATCC 19434, 18 h) of more than 64 µM. Further, the minimum inhibitory concentration (MIC) in the assay on E. coli BW 25113 ΔsbmA was found to be 1 µM; with E. coli ATCC 25922 [2] (ATCC 25922, 18 h), 1 µM; with E. coli BW 25113 [3], 0.5 µM; against A. baumannii ATCC 19606 [14] it was 1 µM; in assay [16] it was 2 µM; with E. cloacae ATCC 13047 [7] (ATCC 13047, 18 h) it was 2 µM. Also, the MIC was 16 µM against S. aureus ATCC 25923 [15] and 16 µM in the assay on P. aeruginosa ATCC 27853 [8] (ATCC 27853, 18 h). For the same sequence, the “MIC (geometric mean)” value in the assay on E. coli ATCC 25922 [2] (ATCC 25922, 18 h) is recorded as 0,8 µM; in the assay with A. baumannii ATCC 19606 [14], 0,8 µM; in the assay on S. aureus ATCC 25923 [15], 20,2 µM; in the assay on P. aeruginosa ATCC 27853 [8] (ATCC 27853, 18 h), 12,7 µM. For the same sequence, the “MBC (geometric mean)” value is 6,3 µM in [4] (ATCC 700603, 18 h); 20,2 µM against P. aeruginosa ATCC 27853 [6] (ATCC 27853, 18 h); 40,3 µM against S. aureus ATCC 25923 [11] (ATCC 25923, 18 h).

As usually defined, the MBC is the lowest tested concentration that kills the bacteria rather than only halting them. A lower MBC goes with greater bactericidal potency. One may read the MIC as the lowest concentration found to suppress growth.
